Experimental data from patent US10450263B2, “Benzo annulenes as antiviral agents” (Southern Research Institute, priority 2017, dated 2019).
Where two headings read alike, the source gives them in different places.

What was measured:
[1] = tested on: Chikungunya virus; test: Evaluation of antiviral activity against Chikungunya virus (EC90); assay type: cell-based
From the text: EC90 refers to the concentration of the compound that is required for 90% antagonism or inhibition of CHIKV. EC90 also refers to the concentration of a substance that is required for 90% antagonism or inhibition of CHIKV in vivo.
(§1) The compounds below in Table 1 were synthesized with methods identical or analogous to those described herein. The requisite starting materials were commercially available, described in the literature, or readily synthesized by one skilled in the art of organic synthesis.

[2] = CC50 reported alongside the CHIKV antiviral assay (cytotoxicity); assay type: cell-based; conditions: cell line not given
From the text: as §1

[3] = Chikungunya virus, read-out: EC90 (μM) CHIKV, concentration required for 90% inhibition of CHIKV

SMILES	EC90 [1, 3]	CC50 [2]	EC90 ([1]; read-out: EC90 (μM) CHIKV, concentration required for 90% inhibition of CHIKV)
COc1cc2c(cc1NC(=O)c1ccc(C(C)(C)C#N)cc1)CCCCC2 [Compound 50, 4-(2-Cyanopropan-2-yl)-N-(3-methoxy-6,7,8,9-tetrahydro-5H-benzo[7]annulen-2-yl)benzamide]	1.16 µM	3.57 µM	–
COc1cc2c(cc1NC(=O)c1ccc(C3(C(F)(F)F)CC3)cc1)CCCCC2 [Compound 51, N-(3-methoxy-6,7,8,9-tetrahydro-5H-benzo[7]annulen-2-yl)-4-(1-(trifluoromethyl)cyclopropyl)benzamide]	1.3 µM	> 30 µM	–
COc1cc2c(cc1NC(=O)c1ccc(C(C)(C)C(F)(F)F)cc1)CCCCC2 [Compound 52, N-(3-methoxy-6,7,8,9-tetrahydro-5H-benzo[7]annulen-2-yl)-4-(1,1,1-trifluoro-2-methylpropan-2-yl)benzamide]	3.47 µM	19.1 µM	–
COc1cc2c(cc1NC(=O)c1ccc(C(C)(C)C)c(F)c1)CCCCC2 [Compound 53, 4-(tert-Butyl)-3-fluoro-N-(3-methoxy-6,7,8,9-tetrahydro-5H-benzo[7]annulen-2-yl)benzamide]	2.24 µM	> 30 µM	–
COc1cc2c(cc1NC(=O)Cc1ccc(C(C)(C)C)cc1)CCCCC2 [Compound 54]	42.9 µM	> 30 µM	–
COc1cc2c(cc1NC(=O)c1ccc(C(=O)O)cc1)CCCCC2 [Compound 55]	> 10 µM	> 30 µM	–
CCc1ccc(C(=O)Nc2cc3c(cc2OC)CCCCC3)cc1 [Compound 56, 4-Ethyl-N-(3-methoxy-6,7,8,9-tetrahydro-5H-benzo[7]annulen-2-yl)benzamide]	> 10 µM	> 30 µM	–
CCCc1ccc(C(=O)Nc2cc3c(cc2OC)CCCCC3)cc1 [Compound 57, N-(3-methoxy-6,7,8,9-tetrahydro-5H-benzo[7]annulen-2-yl)-4-propylbenzamide]	> 10 µM	> 30 µM	–
COc1cc2c(cc1N1Cc3ccc(C(C)(C)C)cc3C1=O)CCCCC2 [Compound 59, 6-(tert-Butyl)-2-(3-methoxy-6,7,8,9-tetrahydro-5H-benzo[7]annulen-2-yl)isoindolin-1-ONE]	> 10 µM	> 30 µM	–
COc1cc2c(cc1N1Cc3cc(C(C)(C)C)ccc3C1=O)CCCCC2 [Compound 60, 5-(tert-Butyl)-2-(3-methoxy-6,7,8,9-tetrahydro-5H-benzo[7]annulen-2-yl)isoindolin-1-one]	> 10 µM	> 30 µM	–
COc1cc2c(cc1NC(=O)c1cc(C)n(C(C)(C)C)n1)CCCCC2 [Compound 61]	5.64 µM	> 30 µM	–
COc1cc2c(cc1NC(=O)c1ccc(C(C)(C)C)cc1)CCCC(=O)N2C(C)C [Compound 63, 4-(tert-butyl)-N-(1-isopropyl-8-methoxy-2-oxo-2,3,4,5-tetrahydro-1H-benzo[b]azepin-7-yl)benzamide]	> 30 µM	> 30 µM	–
COc1cc2c(cc1NC(=O)c1ccc(C(C)(C)C)cc1)CCCCN2 [Compound 64, 4-(tert-butyl)-N-(8-methoxy-2,3,4,5-tetrahydro-1H-benzo[b]azepin-7-yl)benzamide]	3.3 µM	> 30 µM	–
COc1cc2c(cc1NC(=O)c1ccc(C(C)(C)C)cc1)CCCCN2C [Compound 65, 4-(tert-butyl)-N-(8-methoxy-1-methyl-2,3,4,5-tetrahydro-1H-benzo[b]azepin-7-yl)benzamide]	> 30 µM	> 30 µM	–
COc1cc2c(cc1NC(=O)c1ccc(C3(O)CCC3)cc1)CCCCC2 [Compound 66, 4-(1-Hydroxycyclobutyl)-N-(3-methoxy-6,7,8,9-tetrahydro-5H-benzo[7]annulen-2-yl)benzamide]	> 10 µM	> 30 µM	–
COc1cc2c(cc1NC(=O)c1ccc(-c3ccccn3)cc1)CCCCC2 [Compound 67, N-(3-Methoxy-6,7,8,9-tetrahydro-5H-benzo[7]annulen-2-yl)-4-(pyridin-2-yl)benzamide]	> 10 µM	> 30 µM	–
COc1cc2c(cc1NC(=O)CCc1ccc(C(C)(C)C)cc1)CCCCC2 [Compound 68, 3-(4-(tert-Butyl)phenyl)-N-(3-methoxy-6,7,8,9-tetrahydro-5H-benzo[7]annulen-2-yl)propanamide]	> 10 µM	> 30 µM	–
COc1cc2c(cc1NC(=O)c1c[nH]nc1C)CCCCC2 [Compound 69, N-(3-methoxy-6,7,8,9-tetrahydro-5H-benzo[7]annulen-2-yl)-3-methyl-1H-pyrazole-4-carboxamide]	3.1 µM	> 30 µM	–
COc1cc2c(cc1NC(=O)c1cc(C(C)(C)C)c(O)c(C(C)(C)C)c1)CCCCC2 [Compound 70, 3,5-Di-tert-butyl-4-hydroxy-N-(3-methoxy-6,7,8,9-tetrahydro-5H-benzo[7]annulen-2-yl)benzamide]	44.8 µM	> 30 µM	–
COc1cc2c(cc1NC(=O)c1ccc(Cl)cc1)CCCCC2 [Compound 71, 4-Chloro-N-(3-methoxy-6,7,8,9-tetrahydro-5H-benzo[7]annulen-2-yl)benzamide]	6.4 µM	> 30 µM	–
COc1cc2c(cc1NC(=O)c1ccc(OC(F)(F)F)cc1)CCCCC2 [Compound 72, N-(3-Methoxy-6,7,8,9-tetrahydro-5H-benzo[7]annulen-2-yl)-4-(trifluoromethoxy)benzamide]	3.3 µM	> 30 µM	–
COc1cc2c(cc1NC(=O)Cc1cccs1)CCCCC2 [Compound 73, N-(3-Methoxy-6,7,8,9-tetrahydro-5H-benzo[7]annulen-2-yl)-2-(thiophen-2-yl)acetamide]	18.7 µM	> 30 µM	–
COc1cc2c(cc1NC(=O)c1ccc(C(F)(F)F)cc1)CCCCC2 [Compound 74, N-(3-methoxy-6,7,8,9-tetrahydro-5H-benzo[7]annulen-2-yl)-4-(trifluoromethyl)benzamide]	7.4 µM	> 30 µM	–
COc1cc2c(cc1NC(=O)c1ccc(Cl)cc1I)CCCCC2 [Compound 75, 4-Chloro-2-iodo-N-(3-methoxy-6,7,8,9-tetrahydro-5H-benzo[7]annulen-2-yl)benzamide]	6.1 µM	> 30 µM	–
COc1cc2c(cc1NC(=O)c1ccc(N(C)C)cc1)CCCCC2 [Compound 76, 4-(Dimethylamino)-N-(3-methoxy-6,7,8,9-tetrahydro-5H-benzo[7]annulen-2-yl)benzamide]	> 10 µM	> 30 µM	–
COc1cc2c(cc1NC(=O)c1ccc(F)cc1)CCCCC2 [Compound 78, 4-Fluoro-N-(3-methoxy-6,7,8,9-tetrahydro-5H-benzo[7]annulen-2-yl)benzamide]	> 10 µM	> 30 µM	–
COc1cc2c(cc1NC(=O)c1oc3ccccc3c1C)CCCCC2 [Compound 79, N-(3-methoxy-6,7,8,9-tetrahydro-5H-benzo[7]annulen-2-yl)-3-methylbenzofuran-2-carboxamide]	> 10 µM	> 30 µM	–
COc1cc2c(cc1NC(=O)c1ccc(C3CC3)cc1)CCCCC2 [Compound 80, 4-Cyclopropyl-N-(3-methoxy-6,7,8,9-tetrahydro-5H-benzo[7]annulen-2-yl)benzamide]	12.3 µM	> 30 µM	–
COc1cc2c(cc1NC(=O)c1cnc(C)cn1)CCCCC2 [Compound 81, N-(3-methoxy-6,7,8,9-tetrahydro-5H-benzo[7]annulen-2-yl)-5-methylpyrazine-2-carboxamide]	–	> 30 µM	> 10 µM
